Test results published in US9956208B2, “Compounds for the treatment of cancer and inflammatory diseases” (C2 Pharmaceuticals, LLC, priority 2013, dated 2018).

Molecular target: human BTK (Homo sapiens (Human), UniProt Q06187)
Assay: BTK activity, Invitrogen SelectScreen Biochemical Kinase Profiling Service, Z'-LYTE Screening Protocol
Conditions: Z'-LYTE assay, ATP concentration at Km
Method: BTK activity was determined using Invitrogen's SelectScreen® Biochemical Kinase Profiling Service using the Z′-LYTE Screening Protocol and Assay Conditions (ATP concentration at Km).

Sequence of human BTK (Q06187 whole entry): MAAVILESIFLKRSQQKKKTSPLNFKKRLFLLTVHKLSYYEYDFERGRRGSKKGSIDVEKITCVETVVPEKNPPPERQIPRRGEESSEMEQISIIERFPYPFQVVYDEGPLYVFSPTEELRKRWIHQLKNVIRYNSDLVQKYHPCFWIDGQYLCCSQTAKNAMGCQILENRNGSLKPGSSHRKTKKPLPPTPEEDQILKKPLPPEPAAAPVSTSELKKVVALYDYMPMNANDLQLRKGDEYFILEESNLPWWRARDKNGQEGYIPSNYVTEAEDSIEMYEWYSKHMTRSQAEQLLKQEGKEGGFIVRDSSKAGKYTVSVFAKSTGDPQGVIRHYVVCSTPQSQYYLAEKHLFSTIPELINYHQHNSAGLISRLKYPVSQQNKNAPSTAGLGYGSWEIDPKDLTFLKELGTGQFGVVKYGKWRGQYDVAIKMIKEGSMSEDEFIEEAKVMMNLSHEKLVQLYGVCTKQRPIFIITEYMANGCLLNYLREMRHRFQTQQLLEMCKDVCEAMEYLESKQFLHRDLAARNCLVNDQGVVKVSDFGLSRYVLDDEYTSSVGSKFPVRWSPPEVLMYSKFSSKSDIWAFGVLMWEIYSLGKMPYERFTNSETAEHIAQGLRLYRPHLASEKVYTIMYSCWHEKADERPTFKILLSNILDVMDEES

| IC50 [nM] | Structure (SMILES) |
| --- | --- |
| < 10 | C=CC(=O)Nc1cccc2c1OCc1[nH]c(=O)c3c(N)n(-c4cc(O)ccc4C)nc3c1-2 [Example 1, N-[14-amino-15-(5-hydroxy-2-methylphenyl)-12-oxo-8-oxa-11,15,16-triazatetracyclo[8.7.0.0^2,7.0^13,17]heptadeca-1(10),2(7),3,5,13,16-hexaen-6-yl]prop-2-enamide] |
| < 10 | Cc1ccc(O)cc1-n1nc2c3c([nH]c(=O)c2c1N)COc1c(NC(=O)/C=C/CN(C)C)cccc1-3 [Example 2, (2E)-N-[14-amino-15-(5-hydroxy-2-methylphenyl)-12-oxo-8-oxa-11,15,16-triazatetracyclo[8.7.0.0^2,7.0^13,17]heptadeca-1(10),2(7),3,5,13,16-hexaen-6-yl]-4-(dimethylamino)but-2-enamide] |
| < 10 | CN(C)C/C=C/C(=O)Nc1cccc2c1OCc1[nH]c(=O)c3c(N)n(-c4ccc(Oc5ccccc5)cc4)nc3c1-2 [Example 3, (2E)-N-[14-amino-12-oxo-15-(4-phenoxyphenyl)-8-oxa-11,15,16-triazatetracyclo[8.7.0.0^2,7.0^13,17]heptadeca-1(10),2(7),3,5,13,16-hexaen-6-yl]-4-(dimethylamino)but-2-enamide] |
| 10 to 100 | C=CC(=O)Nc1cccc2c1OCc1[nH]c(=O)c3c(N)n(-c4ccccc4F)nc3c1-2 [Example 4, N-[14-amino-15-(2-fluorophenyl)-12-oxo-8-oxa-11,15,16-triazatetracyclo[8.7.0.0^2,7.0^13,17]heptadeca-1(10),2(7),3,5,13,16-hexaen-6-yl]prop-2-enamide] |
